# Values joined by “and” are separate entries in the source; they are usually repeats but may differ in a detail not shown here. Equal entries are not always repeated.
# B1: rhNGAL: purified recombinant human NGAL protein (amino acids 21-198, R&D Systems); in Example 14 rhNGAL produced in E. coli (protein)
# chain: QDSTSDLIPAPPLSKVPLQQNFQDNQFQGKWYVVGLAGNAILREDKDPQKMYATIYELKEDKSYNVTSVLFRKKKCDYWIRTFVPGCQPGEFTLGNIKSYPGLTSYLVRVVSTNYNQHAMVFFKKVSQNREYFKITLYGRTKELTSELKENFIRFSKSLGLPENHIVFPVPIDQCIDG
# modifications: human
# What was measured:
# NGAL [1] = assay: Immunoblot for NGAL in SEB-1 sebocytes after poly (I:C); format: cell-based, human; conditions: SEB-1, 20 μg/mL, 48 hrs
# NGAL [2] = assay: Western blot of NGAL protein in SEB-1 sebocytes after retinoid treatment; format: cell-based, human; conditions: 72 hours, 0.1 nM to 1 μM, maximum with micromolar concentrations
# Source text: For Western blotting, mouse monoclonal antibody to lipocalin 2 (NGAL) was obtained from Abeam, Inc., (Cambridge, Mass.). The 24p3R(NGAL receptor) affinity purified antibody, positive (HEK 293 cell lysate) and negative (T47D cell lysate) controls were kindly provided by Dr. Michael Green (University of Massachusetts Medical School). GAPDH (#2118), Cleaved caspase 3 (#9664), β-actin (#4967) and anti-rabbit horseradish peroxidase (HRP) linked secondary antibodies (#7074) were purchased from Cell Signaling Technology (Beverly, Mass.). Secondary Anti-mouse HRP antibody was purchased from Santa Cruz Biotechnology Inc. (Santa Cruz, Calif.).
# SEB-1 sebocytes (passages 22-28) were in standard culture medium until 50-75% confluent. Treatments of 13-cis RA (0.1 nM, 1 nM, 10 nM, 0.1 μM, or 1 μM) or ethanol vehicle (0.01% or less) were applied for 48 or 72 hours. In parallel studies, identical concentrations of all-trans retinoic acid (ATRA) were applied for 72 hours. In all experiments, each plate was considered an independent sample and total protein was collected. Blots were incubated with appropriate primary and secondary antibodies followed by densitometry. […] Data was analyzed using a paired t-test and results were considered significant if p<0.05.
# Protein expression was verified by western blot at 72 hours of retinoid treatment. […] Blots were analyzed by densitometry and normalized to β-actin. […]
# sebaceous glands [3] = assay: Histology: sebaceous gland area in patient skin biopsies (H&E, image analysis); format: in vivo, human; conditions: one week samples, mean±SEM; baseline 0.23±0.09; not significant (p=0.16)
# sebaceous glands [4] = assay: TUNEL-peroxidase assay on patient skin biopsies; format: in vivo, human
# NGAL [5] = assay: NGAL immunohistochemistry on patient skin sections; format: in vivo, human; conditions: individual patients 1-6 and average, after one week isotretinoin therapy
# Procedure: All sections were counterstained with hematoxylin. […] NC-negative control, consists of a normal human skin incubated with normal mouse IgG1 antibody.
# LCN2 mRNA = assay: QPCR of LCN2 mRNA in SEB-1 sebocytes after retinoid treatment; format: cell-based, human; conditions: 48 hours
# Procedure: Applied Biosystems' Assays-on-Demand Taqman Universal PCR Master Mix, primer/probe sets, and ABI's 7900HT Fast Real-Time PCR System with 384-well plate block module were used according to manufacturer's instructions (Applied Biosystems, Foster City, Calif.). Integrity of isolated RNA was verified by agarose gel electrophoresis. cDNA was generated from 1 μg of total RNA, primed with oligo-dT, using the Superscript First-Strand Synthesis System for RT-PCR (Invitrogen, Carlsbad, Calif.). Diluted cDNA from the one week samples were run for the reference gene TATA binding protein (TBP) and genes of interest: lipocalin 2, (LCN2) RARRES1, S100A7, SERPINA3 and PLA2G7. For gene array verification, 8 independent samples of SEB-1 sebocytes treated with 0.1 μM 13-cis RA or vehicle alone for 72 hours were analyzed. Genes of interest included: LCN2, RARRES1, insulin-like growth factor binding protein 3 (IGFBP-3), GATA3, ZBTB16 and potential LCN2 cell surface receptor (SLC22A17). Expression of TBP, GAPDH and LCN2 was analyzed in 6 independent SEB-1 samples for the siRNA knockdown experiments. SEB-1 sebocytes treated with increasing concentrations of ATRA (n=5) were analyzed for the reference gene, TBP, and LCN2. […] Data was analyzed using the Relative Expression Software Tool (REST-XL version 1) software program (64) with efficiency correction and a p-value <0.05 was considered significant. […]
# SEB-1 sebocytes = assay: TUNEL assay in SEB-1 sebocytes; format: cell-based, human; conditions: 24 hours, 1 ng/mL
# P. acnes bacteria = assay: P. acnes percent survival after rhNGAL treatment; conditions: 1-25 μg/mL, 4 hours, percent survival relative to vehicle
molecule,measurement,setting,value
Polyinosinic:polycytidylic acid [Poly (I:C)],NGAL expression in total cell lysate,NGAL [1],increases
"CC1=C(/C=C/C(C)=C/C=C/C(C)=C/C(=O)O)C(C)(C)CCC1 [ATRA, all-trans retinoic acid]",NGAL protein expression increase compared to control (maximum),NGAL [2],7 fold
"CC1=C(/C=C/C(C)=C/C=C/C(C)=C\C(=O)O)C(C)(C)CCC1 [isotretinoin, 13-cis retinoic acid]",mean area of sebaceous glands,sebaceous glands [3],0.12±0.02 mm^2
same,increase in the percentage of TUNEL positive cells vs baseline,sebaceous glands [4]; one week of therapy compared to baseline,4 fold
same,percentage of TUNEL positive cells within the sebaceous gland,"sebaceous glands [4]; one week of therapy, mean±SD, n=6 patients, baseline 13.9±6%, p=0.005",45.9±11.9%
same,1-week (% of sebaceous gland positive for NGAL),NGAL [5],27.1% and 1.1% and 12.1% and 1.0% and 36.7% and 11.3%
same,concentrations that significantly increased LCN2 mRNA levels,LCN2 mRNA,≥ 1 nM
same,increase of LCN2 mRNA levels compared to control,LCN2 mRNA; micromolar concentrations,approximately 6 fold
B1,percentage of TUNEL positive cells (maximum),SEB-1 sebocytes,approximately 35%
same,effect on P. acnes bacteria (FIG. 11),P. acnes bacteria,inhibitory effects

# — patent US9308239B2, “Methods and compositions for treatment of retinoid-responsive conditions” (The Penn State Research Foundation, priority 2008, dated 2016)
